Laboratory results reported in ChEMBL document CHEMBL3091405, “Novel glycosylated endomorphin-2 analog produces potent centrally-mediated antinociception in mice after peripheral administration” (Bioorg Med Chem Lett, 2013).
Activity calls are given as the source filed them. The rule behind the calls is not given here. Residues, ends and D or L forms follow the SMILES beside them. *: point of attachment. X1 = CC(=O)OC[C@H]1O[C@@H](*)[C@H](OC(C)=O)[C@@H](OC(C)=O)[C@@H]1OC(C)=O; βGlc = OC[C@H]1O[C@@H](*)[C@H](O)[C@@H](O)[C@@H]1O

What was measured:
Mu-type opioid receptor [1] = target: Mu-type opioid receptor (Cavia porcellus, UniProt P97266); experiment: Agonist activity at mu opioid receptor in guinea pig ileum; type: tissue-based
Mu-type opioid receptor (Cavia porcellus, UniProt P97266), sequence (P97266 whole entry): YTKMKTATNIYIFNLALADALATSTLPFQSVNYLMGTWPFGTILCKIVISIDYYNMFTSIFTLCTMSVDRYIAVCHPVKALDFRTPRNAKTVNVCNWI

Mu-type opioid receptor [2] = target: Mu-type opioid receptor (Rattus norvegicus, UniProt P33535); experiment: Displacement of [3H]DAMGO from Wistar rat brain mu opioid receptor by liquid scintillation counting analysis
Mu-type opioid receptor (Rattus norvegicus, UniProt P33535), sequence (P33535 whole entry): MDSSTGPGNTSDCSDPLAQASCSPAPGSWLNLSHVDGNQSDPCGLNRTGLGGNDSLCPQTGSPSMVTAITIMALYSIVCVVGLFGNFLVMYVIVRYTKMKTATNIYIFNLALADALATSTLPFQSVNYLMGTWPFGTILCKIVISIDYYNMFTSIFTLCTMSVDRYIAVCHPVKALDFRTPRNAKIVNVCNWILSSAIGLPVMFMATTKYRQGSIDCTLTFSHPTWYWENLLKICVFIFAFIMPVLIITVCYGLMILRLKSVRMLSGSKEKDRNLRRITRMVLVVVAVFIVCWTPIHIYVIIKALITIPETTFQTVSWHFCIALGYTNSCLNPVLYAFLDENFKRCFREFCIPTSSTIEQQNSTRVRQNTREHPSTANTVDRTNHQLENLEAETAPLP

Plasma [3] = experiment: Drug metabolism in mouse plasma assessed as glucuronic metabolite formation at 3 mg/kg, iv after 10 mins by mass spectrometric analysis; type: ADME, organism-based; set-up: dose 3 mg/kg, route intravenous; settings: in vivo
Mus musculus [4] = experiment: Antinociceptive activity in mouse assessed as prolongation time to jump at 3 mg/kg, iv by hot plate test; type: functional, organism-based; set-up: dose 3 mg/kg
Plasma [5] = experiment: Drug metabolism in mouse plasma assessed as degycosylated metabolite formation at 3 mg/kg, iv after 10 mins by mass spectrometric analysis; type: ADME, organism-based; set-up: dose 3 mg/kg, route intravenous; settings: in vivo
Mus musculus [6] = experiment: Antinociceptive activity in mouse assessed as prolongation time to jump at 3 mg/kg, iv by hot plate test in presence of opioid receptor antagonist NALME; type: functional, organism-based; set-up: dose 3 mg/kg

SMILES | IC50 (Mu-type opioid receptor [1]) [nM] | IC50 (Mu-type opioid receptor [2]) [nM] | Drug metabolism (Plasma [3]) | Activity (Mus musculus [4]) | Drug metabolism (Plasma [5]) | Activity (Mus musculus [6])
CC(=O)OC[C@H]1O[C@@H](Oc2ccc(C[C@H](NC(=O)[C@@H]3CCCN3C(=O)[C@@H](N)Cc3ccc(O)cc3)C(=O)N[C@@H](Cc3ccccc3)C(N)=O)cc2)[C@H](OC(C)=O)[C@@H](OC(C)=O)[C@@H]1OC(C)=O (H-YPY(X1)F-NH2) | > 1000 | > 1000 | – | – | – | –
NC(=O)[C@H](Cc1ccccc1)NC(=O)[C@H](Cc1ccc(O[C@@H]2O[C@H](CO)[C@@H](O)[C@H](O)[C@H]2O)cc1)NC(=O)[C@@H]1CCCN1C(=O)[C@@H](N)Cc1ccc(O)cc1 (H-YPY(βGlc)F-NH2) | 16.1 | 73.2 | Active | Active | Active | Active
NC(=O)[C@H](Cc1ccccc1)NC(=O)[C@H](Cc1ccccc1)NC(=O)[C@@H]1CCCN1C(=O)[C@@H](N)Cc1ccc(O)cc1 | – | – | – | inactive | – | –
